Measured values as given in patent US10376561B1, “Fasciola hepatica fatty acid binding protein a novel anti-inflammatory molecule” (priority 2015, dated 2019).

Experiments:
TLR4 = test: NF-κB activation in TLR4-transfected HEK cells (SEAP, A655); type: cell-based, human; conditions: PMB 100 μM; LPS 5 μg/ml
Description: To investigate the mechanism of interaction between Fh12 and TLR4 we used Human Embryonic Kidney 293 cells (HEK293, InvivoGen). These cells (HEK293-TLR4) are co-transfected with genes encoding cluster differentiation antigen-14 (CD14), myeloid differentiation protein-2 (MD2), toll-like receptor-4 (TLR4) co-receptor, and a SEAP reporter gene (HEK293-TLR4). Cells were maintained in DMEM supplemented with 4.5 g/L glucose, 10% fetal bovine serum (FBS), 50 U/ml penicillin, 50 μg/ml streptomycin, 100 μg/ml Normocin™ and 2 mM L-glutamine. For all experiments a cell suspension was prepared using HEK-Blue™ Detection medium at 14×10^4 cells/ml. For stimulation experiments, cells were seeded at 2.52×10^4 cells/well in 96-well flat-bottom plates and treated with Fh12 (from 0.62 to 10 μg/ml) or LPS (5 μg/ml), and incubated at 37° C., 5% CO2 for 24 h. In the inhibition experiments, cells were cultured with Fh12 (0.6 to 10 μg/ml) 30 min prior LPS (5 μg/ml) stimulation. […] All readings were done at 655 nm after 24 h of LPS-stimulation. […] The percent of reduction (R %) of the absorbance values was calculated by the formula R (%)=100−[(A−C)×100)/(B−C)], where A is the mean A655 of three replicates obtained when cells were stimulated with Fh12, and B is the mean A665 value obtained when cells were exposed to LPS, and C is the mean A655 of three replicates obtained when cells were stimulated with PBS. […]

human LBP = molecular target: T1, human LBP (Homo sapiens, UniProt P18428); test: LPS-binding protein (LBP)/LPS interaction assay (Endoblock LBP ELISA); conditions: Polymyxin-B 100 μM
T1 construct: purchased Hycult Biotech
T1 sequence (P18428 26-481): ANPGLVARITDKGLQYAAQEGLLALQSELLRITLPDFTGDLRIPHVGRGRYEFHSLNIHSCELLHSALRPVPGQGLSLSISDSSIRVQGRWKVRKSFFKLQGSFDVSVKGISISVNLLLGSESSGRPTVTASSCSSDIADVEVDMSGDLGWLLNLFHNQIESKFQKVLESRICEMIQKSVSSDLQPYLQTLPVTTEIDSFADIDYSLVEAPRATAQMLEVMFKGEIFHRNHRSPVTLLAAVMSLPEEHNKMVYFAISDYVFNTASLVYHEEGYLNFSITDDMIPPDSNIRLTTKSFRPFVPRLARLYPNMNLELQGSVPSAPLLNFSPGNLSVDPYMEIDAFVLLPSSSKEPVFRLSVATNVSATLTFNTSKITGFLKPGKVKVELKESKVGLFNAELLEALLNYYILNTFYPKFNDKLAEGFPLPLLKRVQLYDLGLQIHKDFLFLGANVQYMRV
Description: The Endoblock LBP ELISA test kit (Hycult Biotech, PA, USA) was used according to the manufacturer's instructions to investigate whether Fh12 disrupts the interaction between LPS and LBP. Briefly, binding of biotinylated LPS to pre-captured human LBP was assessed using streptavidin peroxidase, followed by addition of tetramethylbenzidine. Fh12 (0.05-10 μg/ml) was pre-incubated for 30 min with biotinylated-LPS and added to wells pre-coated with anti-LBP+LBP. PMB (0.2-100 μM), which competes with LBP for binding to LPS, was used as a control for inhibition by pre-incubation with biotinylated-LPS.
To investigate the mechanism through which Fh12 specifically blocks the interaction between LPS and TLR4, we firstly assessed whether Fh12 exposure alters either the interaction of LPS with […] (LBP), or the expression of any TLR4 complex component. To assess whether Fh12 prevents binding of LPS to LBP, we used an LBP-ELISA kit, which detects binding of biotinylated LPS to LBP. PMB, which competes with LBP for binding to LPS, was used as a positive control. A lipid-binding protein assay (Endoblock) was used to investigate whether Fh12 disrupts the interaction between LPS and LBP. Polymyxin-B (100 μM), which is known to compete with LBP for binding to LPS, blocked LBP/LPS binding.

polymyxin-B [PMB]
NF-κB expression, antagonist control (TLR4): completely suppressed
LBP/LPS binding, positive control (human LBP): blocked
